Series [1] deals with tyrosine phosphorylation in primary macrophages. Nature of the series: Tyrosine phosphorylation assay in primary macrophages (Western blot). It is filed as cell-based, mouse. The procedure: (§1) Tyrosine Phosphorylation Assay: Tyrosine phosphorylation in macrophages or bone marrow-derived cells (BMDCs) of mice was assayed. Mouse primary macrophages were isolated from the peritoneum of 7-8 week old C57BL/6 female mice following thioglycollate stimulation. […] Mouse primary bone marrow-derived cells were isolated by flushing bone marrow out of the femur and tibia of female SJL mice using cold RPMI-1640. […] Cells were then washed, resuspended in the same buffer and depleted of B and T cells on a Midi-Macs separation unit through a LD or LS column (Miltenyi Biotech). […] The medium was replaced every other day. […] Proteins with phosphorylated tyrosine were then observed by Western blot, using a monoclonal anti-phosphotyrosine antibody. Western blotting for ERK1/2 or α-tubulin was performed as a control for protein loading.
(Immunoblotting shows a protein as a band on a membrane.)

For series [2], the system named is mouse peritoneal macrophages. Briefly: In vitro toxicity assay. Type of series: cell-based. The conditions noted are these: for LD50: crystal violet cell number. The method, then: Thioglycollate-elicited mouse peritoneal macrophages were washed, counted and seeded (2×10^5 to 3×10^5 cells per well in 24-well plates) in triplicate wells in medium containing RPMI-1640, L-glutamine, 10% FBS and antibiotics (penicillin/streptomycin). After a recovery period of 24 hours, the tested compound (or controls) was added to the cell medium at doses of 2, 10, 20, 50, 100 or 150 μg/ml, keeping the added volume equal in all treatments by complementing the volume with solvent.
Following addition of the compounds, the cells were incubated for an additional 24 hours, after which the cells were washed, fixed with a solution of 10% methanol/10% acetic acid and stained with crystal violet (0.4% in 20% ethanol). Cell numbers were measured by determining optical density at 595 nm. Cells incubated with vehicle (PBS with 1% ethanol) were used as a control, to which cell numbers in treated samples were normalized.
Data are presented as mean±standard deviation. Statistical significance relative to vehicle-treated cells was calculated using a student's t-test, with p-values of less than 0.05 being considered as indicating statistical significance.

Series [3] relates to tyrosine phosphorylation in bone marrow-derived cells. Briefly: Tyrosine phosphorylation assay in bone marrow-derived cells (Western blot). Type of series: cell-based, mouse. The note with it: 20 μg/ml (33 μM). The method, then: as §1
In series [4] the test system is IL12/23 p40. Nature of the series: In vitro IL12/23p40 production assay. Type of series: cell-based, mouse. The conditions noted are these: bone marrow-derived cells. The procedure: In Vitro IL12/23p40 Production Assay:
Bone marrow derived cells (BMDCs) were obtained from the femur and tibia of female C57BL mice, cultured, and seeded at a concentration of 10^6 cells/ml 5-6 days post-culturing, as described hereinabove for the tyrosine phosphorylation assay.
The tested compound was then added to the cells for 1 hour at a concentration of 1, 2.5, 5, 10 or 20 μg/ml. The cells were activated for IL12/23p40 production by incubation for 24 hours with 10 μg/ml peptidoglycan (PGN). Cytokine production from the supernatant was measured by ELISA. Activated cells without the tested compound were used as the control.

The mark [5] stands for this setting: peritoneal macrophages, 24 hours, only one of two experiments.
Setting [6] is: compound 1, 2.5, 5, 10 or 20 μg/ml for 1 hour, then 10 μg/ml peptidoglycan 24 hours, ELISA.
[7] abbreviates: peritoneal macrophages, 24 hours.
The mark [8] stands for this setting: peritoneal macrophages, 24 hours, up to 150 μg/ml.

Values joined by “and” are separate entries in the source; they are usually repeats but may differ in a detail not shown here. Equal values may be shown once. Read-outs that look alike come from different tables or passages of the source.

On to “1-(2-octyl)dodecyl-2-(4-carboxy)butyl-glycero-3-phosphoethanolamine [VB-222]”, for which the phosphotyrosine levels result in series [1] (10 μg/ml, 10 minutes) is “induction of tyrosine phosphorylation”; in series [1] (20 μg/ml, 10 minutes) it was “induction of tyrosine phosphorylation”.
With `NCCOP(=O)(O)OCC(COCCCCCCCCCCCCCCCC(=O)O)OCCCCC(=O)O` (stereo not shown) [CI-214, 1-(15′-carboxy)pentadecyl-2-(4-carboxy)butyl-glycero-3-phosphoethanolamine], the “toxicity within the range of tested doses” value (shortened to “toxicity within the range”) in series [2] is given as “did not clearly exhibit significant toxicity within the range of tested doses”. In addition, in series [2] (mouse, 24 h), the “dose at which a significant decrease in cell number was detected in only one experiment” value stood at 175.5 µM and the “dose at which toxicity was detected in only one experiment” value (shortened to “dose at which toxicity was detected”) worked out at 100 µg/mL.
Regarding `CCCCCCCCCCCCCCCCOCC(COP(=O)([O-])OCC[N+](C)(C)C)OCCCCC(=O)OC` (stereo not shown) [CI-208, 1-hexadecyl-2-(4-methylcarboxy)butyl-glycero-3-phosphocholine], the phosphotyrosine levels result in series [1] (20 ng/ml) is on record as “causes a reduction in phosphotyrosine levels, which is stronger than the reduction caused by treatment with 20 ng/ml of the CI-201 control”. In series [2] (mouse, 24 h), the “dose at which toxicity was detected” value was 20 µg/mL.
As to “1-(2-octyl)dodecyl-2-(4-carboxy)butyl-glycero-3-phosphocholine [VB-221]”, the phosphotyrosine levels entry in series [1] (5 ng/ml (8 μM)), in series [1] (10 ng/ml (16 μM)) and in series [1] (20 ng/ml) was “induction of tyrosine phosphorylation” throughout.
As for `CCCCCCCCCCCCCCCCOCC(COP(=O)(O)OCCN)OCCCC(=O)O` (stereo not shown) [CI-206, 1-hexadecyl-2-(3-carboxy)propyl-glycero-3-phosphoethanolamine], the phosphotyrosine levels result in series [1] (20 μg/ml, 10 minutes) is “causes reduction in phosphotyrosine levels”. Also, the “dose at which (significant) toxicity was detected” value in series [2] (mouse, 24 h) is ≥ 50 µg/mL.
For `CCCCCCCCCCCCCCCCCCOCC(COP(=O)([O-])OCC[N+](C)(C)C)OCCCCC(=O)O` (stereo not shown) [CI-215, 1-octadecyl-2-(4-carboxy)butyl-glycero-3-phosphocholine], the phosphotyrosine levels result is recorded as “induced an increase in phosphotyrosine levels” in series [1] (10 μg/ml, 10 minutes) and “caused a decrease in phosphotyrosine levels” in series [1] (20 μg/ml, 10 minutes).
In the case of `CCCCCCCCCCCCCCCCOCC(COP(=O)([O-])OCC[N+](C)(C)C)OCCCCC(OCC)OCC` (stereo not shown) [diEtAc, 1-hexadecyl-2-(5′,5′-diethoxypentyl)-glycero-3-phosphocholine], in series [2] (mouse, 24 h), the “dose at which (significant) toxicity was detected” value is ≥ 20 µg/mL and the “dose at which toxicity was detected” value came out at 10 µg/mL.
For the compound `CCCCCCCCCCCCCCCCOC[C@H](COP(=O)([O-])OCC[N+](C)(C)C)OCCCCCCC(=O)O` [(R)-CI-203, (R)-1-hexadecyl-2-(6-carboxy)hexanyl-sn-glycero-3-phosphocholine], the phosphotyrosine levels result in series [3] is recorded as “caused a reduction in phosphotyrosine levels”.
`CCCCCCCCCCCCCCCCSCC(COP(=O)(O)OCCN)OCCCCC(=O)O` (stereo not shown) [1-S-CI-202, 1-S-hexadecyl-2-(4-carboxy)butyl-glycero-3-phosphoethanolamine]: the phosphotyrosine levels result in series [1] (10 μg/ml, 10 minutes) is given as “caused an increase in phosphotyrosine levels”; in series [1] (20 μg/ml, 10 minutes) it was “caused a reduction in phosphotyrosine levels”.
Turning to `CCCCCCCCCCCCCCCCCCCCOCC(COP(=O)(O)OCCN)OCCCCC(=O)O` (stereo not shown) [CI-220, 1-eicosanyl-2-(4-carboxy)butyl-glycero-3-phosphoethanolamine], the phosphotyrosine levels entry in series [1] (10 μg/ml, 10 minutes) is given as “little effect, if any”; in series [1] (20 μg/ml, 10 minutes), “caused a reduction in phosphotyrosine levels”.
Regarding `CCCCCCCCCCCCCCCCCCOCC(COP(=O)(O)OCCN)OCCCCC(=O)O` (stereo not shown) [CI-216, 1-octadecyl-2-(4-carboxy)butyl-glycero-3-phosphoethanolamine], the “production of IL12/23 p40” value in series [4] (20 μg/ml) was “inhibited production of IL12/23 p40 by bone marrow-derived cells”. Also, the phosphotyrosine levels entry in series [1] (10 μg/ml, 10 minutes) was “induction of tyrosine phosphorylation”; in series [1] (20 μg/ml, 10 minutes), “reduction in phosphotyrosine levels”.
`CCCCCCCCCCCCCCCCOCC(COP(=O)(O)OCC(N)C(=O)O)OCCCCC(=O)O` (stereo not shown) [VB-223, 1-hexadecyl-2-(4-carboxy)butyl-glycero-3-phosphoserine]: the phosphotyrosine levels result is “perhaps also” in series [1] (1 μg/ml, 10 minutes); “induction of tyrosine phosphorylation” in series [1] (5 μg/ml, 10 minutes); “induction of tyrosine phosphorylation” in series [1] (10 μg/ml, 10 minutes); “induction of tyrosine phosphorylation” in series [1] (20 μg/ml, 10 minutes).
Regarding `CCCCCCCCCCCCCCCCOCC(COP(=O)([O-])OCC[N+](C)(C)C)OCCCC(=O)O` (stereo not shown) [CI-205, 1-hexadecyl-2-(3-carboxy)propyl-glycero-3-phosphocholine], in series [1] (20 μg/ml, 10 minutes), the phosphotyrosine levels result is recorded as “causes reduction in phosphotyrosine levels”. Besides, the “dose at which (significant) toxicity was detected” value in series [2] (peritoneal macrophages, 24 hours, doses 2-150 μg/ml) turned out to be 100 µg/mL. In addition, the “dose at which toxicity was detected” value in series [2] (setting [5]) lay in the range of 20 to 50 µg/mL.
Take `CCCCCCCCCCCCCCCCCCCCOCC(COP(=O)([O-])OCC[N+](C)(C)C)OCCCCC(=O)O` (stereo not shown) [CI-219, 1-eicosanyl-2-(4-carboxy)butyl-glycero-3-phosphocholine]: the phosphotyrosine levels entry in series [1] (10 μg/ml, 10 minutes) is listed as “little effect, if any”; in series [1] (20 μg/ml, 10 minutes), “caused a reduction in phosphotyrosine levels”.
The corresponding values for `CCCCCCCCCCCCCCCCOCC(COP(=O)([O-])OCC[N+](C)(C)C)OCCC(=O)O` (stereo not shown) [CI-217, 1-Hexadecyl-2-(2-carboxy)ethyl-glycero-3-phosphocholine] are “little effect” and “caused a reduction in phosphotyrosine levels”.
Take `CCCCCCCCCCCCCCCCOCC(COP(=O)(O)OCCNC(=O)CCCC(=O)O)OCCCCC(=O)O` (stereo not shown) [CI-210, 1-hexadecyl-2-(4-carboxy)butyl-glycero-3-phosphoethanolamine-N-glutaric acid]: the “production of IL12/23 p40” value in series [4] (setting [6]) is given as “inhibited production of IL12/23 p40 by bone marrow-derived cells in a dose-dependent manner”. The phosphotyrosine levels entry in series [1] (20 μg/ml, 10 minutes) is “induced an increase in phosphotyrosine levels”. Also, in series [2] (mouse, 24 h), the “dose at which (significant) toxicity was detected” value was ≥ 100 µg/mL and the “dose at which significant toxicity was observed” value was ≥ 156.6 µM. Also, the LD50 entry in series [2] (setting [7]) is “approximately 150 μg/ml and ~235 μM”.
With `C[N+](C)(C)CCOP(=O)([O-])OCC(COCCCCCCCCCCCCCCCC(=O)O)OCCCCC(=O)O` (stereo not shown) [CI-213, 1-(15′-carboxy)pentadecyl-2-(4-carboxy)butyl-glycero-3-phosphocholine], the “dose at which a significant decrease in cell number was detected in only one experiment” value in series [2] (peritoneal macrophages, 24 hours, only one experiment) amounted to 163.5 µM. Moreover, the “dose at which toxicity was detected” value in series [2] (setting [5]) is 100 µg/mL. Further, in series [2] (setting [8]), the “toxicity within the range” value is reported as “did not clearly exhibit significant toxicity within the range of tested doses”.
With `CCCCCCCCCCCCCCCCSCC(COP(=O)([O-])OCC[N+](C)(C)C)OCCCCC(=O)O` (stereo not shown) [1-S-CI-201, 1-S-hexadecyl-2-(4-carboxy)butyl-glycero-3-phosphocholine], the phosphotyrosine levels entry is “little effect, if any” in series [1] (10 μg/ml, 10 minutes) and “caused a reduction in phosphotyrosine levels” in series [1] (20 μg/ml, 10 minutes).
For `CCCCCCCCCCCCCCCCOCC(COP(=O)(O)O)OCCCCC(=O)O` (stereo not shown) [CI-201-PA, 1-hexadecyl-2-(4-carboxy)butyl-glycero-3-phosphate], in series [2] (mouse, 24 h), the “dose at which (significant) toxicity was detected” value was ≥ 20 µg/mL and the “dose at which toxicity was detected” value came to 10 µg/mL. Also, the LD50 entry in series [2] (setting [7]) is recorded as “approximately 50 μg/ml”.
As for `CCCCCCCCCCCCOCC(COP(=O)([O-])OCC[N+](C)(C)C)OCCCCC(=O)O` (stereo not shown) [CI-209, 1-dodecyl-2-(4-carboxy)butyl-glycero-3-phosphocholine], the “production of IL12/23 p40” value in series [4] (setting [6]) is “inhibited production of IL12/23 p40 by bone marrow-derived cells in a dose-dependent manner”. Also, the phosphotyrosine levels result in series [1] (20 μg/ml, 10 minutes) is reported as “induced an increase in phosphotyrosine levels”. The LD50 result in series [2] (setting [7]) is “above 150 μg/ml and > 286 μM”. In addition, the “toxicity within the range” value in series [2] (setting [8]) is “toxicity of CI-209 was not observed at any of the tested doses”.

The record behind these values is patent publication US9206206B2, “Oxidized lipid compounds and uses thereof” (Vascular Biogenics Ltd., priority 2008, dated 2015).
